{
  "source": "patent US7371766B2",
  "about": "“Curcumin analogs with anti-tumor and anti-angiogenic properties” (Emory University, priority 1999, dated 2008)",
  "key": {"[1]": {"tested_on": "HL-60 (TB)"}, "[2]": {"tested_on": "RPMI-8226", "settings": "48 hours"}, "[3]": {"tested_on": "SR"}, "[4]": {"tested_on": "HOP-92", "settings": "48 hours"}, "[5]": {"tested_on": "NCI-H226", "settings": "48 hours"}, "[6]": {"tested_on": "NCI-H23", "settings": "48 hours"}, "[7]": {"tested_on": "HCC-2998", "settings": "48 hours"}, "[8]": {"tested_on": "HT29", "settings": "48 hours"}, "[9]": {"tested_on": "SW-620", "settings": "48 hours"}, "[10]": {"tested_on": "SF-539", "settings": "48 hours"}, "[11]": {"tested_on": "SNB-19", "settings": "48 hours"}, "[12]": {"tested_on": "SNB-75", "settings": "48 hours"}, "[13]": {"tested_on": "U251", "settings": "48 hours"}, "[14]": {"tested_on": "LOX IMVI"}, "[15]": {"tested_on": "MALME-3M"}, "[16]": {"tested_on": "SK-MEL-28", "settings": "48 hours"}, "[17]": {"tested_on": "SK-MEL-5", "settings": "48 hours"}, "[18]": {"tested_on": "UACC-62", "settings": "48 hours"}, "[19]": {"tested_on": "OVCAR-3", "settings": "48 hours"}, "[20]": {"tested_on": "OVCAR-8", "settings": "48 hours"}, "[21]": {"tested_on": "RXF 393", "settings": "48 hours"}, "[22]": {"tested_on": "TK-10", "settings": "48 hours"}, "[23]": {"tested_on": "UO-31", "settings": "48 hours"}, "[24]": {"tested_on": "MCF-7", "settings": "48 hours"}, "[25]": {"tested_on": "MDA-MB-231", "settings": "48 hours"}, "[26]": {"tested_on": "HS 578T"}, "[27]": {"tested_on": "MDA-N"}, "[28]": {"settings": "read-out: Median Growth Inhibitory Concentration (GI50), Leukemia, 48 hours"}, "[29]": {"settings": "read-out: Median Lethal Concentration (LC50), Leukemia, 48 hours, SRB assay"}, "[30]": {"settings": "read-out: Median Growth Inhibitory Concentration (GI50), Melanoma, 48 hours"}, "[31]": {"settings": "read-out: Median Lethal Concentration (LC50), Melanoma, 48 hours, SRB assay"}, "[32]": {"settings": "read-out: Median Growth Inhibitory Concentration (GI50), Breast Cancer, 48 hours"}, "[33]": {"settings": "read-out: Median Lethal Concentration (LC50), Breast Cancer, 48 hours, SRB assay"}},
  "data": [
    {"smiles": "O=C1C(=Cc2ccccc2O)COCC1=Cc1ccccc1O", "note": "[EF25, 3,5-Bis(2-hyrdoxybenzylidene)tetrahydro4-H-pyran4-one]", "values": [
      {"measurement": "GI50", "setting": "[1]; [28]", "result": 1.1, "unit": "µM"},
      {"measurement": "CC50", "setting": "[1]; [29]", "result": "> 100", "unit": "µM"},
      {"measurement": "GI50", "setting": "[2]; read-out: Median Growth Inhibitory Concentration (GI50), RPMI-8226, Leukemia", "result": 0.2, "unit": "µM"},
      {"measurement": "CC50", "setting": "[2]; read-out: Median Lethal Concentration (LC50), Leukemia, RPMI-8226, SRB assay", "result": 70.9, "unit": "µM"},
      {"measurement": "GI50", "setting": "[3]; [28]", "result": 0.2, "unit": "µM"},
      {"measurement": "CC50", "setting": "[3]; [29]", "result": 76.3, "unit": "µM"},
      {"measurement": "GI50", "setting": "[4]; read-out: Median Growth Inhibitory Concentration (GI50), HOP-92, Non-Small Cell Lung Cancer", "result": 2.4, "unit": "µM"},
      {"measurement": "CC50", "setting": "[4]; read-out: Median Lethal Concentration (LC50), Non-Small Cell Lung Cancer, HOP-92, SRB assay", "result": 35.4, "unit": "µM"},
      {"measurement": "GI50", "setting": "[5]; read-out: Median Growth Inhibitory Concentration (GI50), NCI-H226, Non-Small Cell Lung Cancer", "result": 2.2, "unit": "µM"},
      {"measurement": "CC50", "setting": "[5]; read-out: Median Lethal Concentration (LC50), Non-Small Cell Lung Cancer, NCI-H226, SRB assay", "result": 58, "unit": "µM"},
      {"measurement": "GI50", "setting": "[6]; read-out: Median Growth Inhibitory Concentration (GI50), NCI-H23, Non-Small Cell Lung Cancer", "result": 1.7, "unit": "µM"},
      {"measurement": "CC50", "setting": "[6]; read-out: Median Lethal Concentration (LC50), Non-Small Cell Lung Cancer, NCI-H23, SRB assay", "result": 12.9, "unit": "µM"},
      {"measurement": "GI50", "setting": "[7]; read-out: Median Growth Inhibitory Concentration (GI50), HCC-2998, Colon Cancer", "result": 1.5, "unit": "µM"},
      {"measurement": "CC50", "setting": "[7]; read-out: Median Lethal Concentration (LC50), Colon Cancer, HCT-2998, SRB assay", "result": 5.3, "unit": "µM"},
      {"measurement": "GI50", "setting": "[8]; read-out: Median Growth Inhibitory Concentration (GI50), HT29, Colon Cancer", "result": 2, "unit": "µM"},
      {"measurement": "CC50", "setting": "[8]; read-out: Median Lethal Concentration (LC50), Colon Cancer, HT29, SRB assay", "result": 67.5, "unit": "µM"},
      {"measurement": "GI50", "setting": "[9]; read-out: Median Growth Inhibitory Concentration (GI50), SW-620, Colon Cancer", "result": 0.5, "unit": "µM"},
      {"measurement": "CC50", "setting": "[9]; read-out: Median Lethal Concentration (LC50), Colon Cancer, SW-620, SRB assay", "result": 75.3, "unit": "µM"},
      {"measurement": "GI50", "setting": "[10]; read-out: Median Growth Inhibitory Concentration (GI50), SF-539, CNS Cancer", "result": 0.5, "unit": "µM"},
      {"measurement": "CC50", "setting": "[10]; read-out: Median Lethal Concentration (LC50), CNS Cancer, SF-539, SRB assay", "result": 16.8, "unit": "µM"},
      {"measurement": "GI50", "setting": "[11]; read-out: Median Growth Inhibitory Concentration (GI50), SNB-19, CNS Cancer", "result": 2.2, "unit": "µM"},
      {"measurement": "CC50", "setting": "[11]; read-out: Median Lethal Concentration (LC50), CNS Cancer, SNB-19, SRB assay", "result": 37.3, "unit": "µM"},
      {"measurement": "GI50", "setting": "[12]; read-out: Median Growth Inhibitory Concentration (GI50), SNB-75, CNS Cancer", "result": 1.8, "unit": "µM"},
      {"measurement": "CC50", "setting": "[12]; read-out: Median Lethal Concentration (LC50), CNS Cancer, SNB-75, SRB assay", "result": 14, "unit": "µM"},
      {"measurement": "GI50", "setting": "[13]; read-out: Median Growth Inhibitory Concentration (GI50), U251, CNS Cancer", "result": 0.7, "unit": "µM"},
      {"measurement": "CC50", "setting": "[13]; read-out: Median Lethal Concentration (LC50), CNS Cancer, U251, SRB assay", "result": 5.8, "unit": "µM"},
      {"measurement": "GI50", "setting": "[14]; [30]", "result": 0.2, "unit": "µM"},
      {"measurement": "CC50", "setting": "[14]; [31]", "result": 3.6, "unit": "µM"},
      {"measurement": "GI50", "setting": "[15]; [30]", "result": 1.9, "unit": "µM"},
      {"measurement": "CC50", "setting": "[15]; [31]", "result": 19.3, "unit": "µM"},
      {"measurement": "GI50", "setting": "[16]; read-out: Median Growth Inhibitory Concentration (GI50), SK-MEL-28, Melanoma", "result": 2.4, "unit": "µM"},
      {"measurement": "CC50", "setting": "[16]; read-out: Median Lethal Concentration (LC50), Melanoma, SK-MEL-28, SRB assay", "result": 6.6, "unit": "µM"},
      {"measurement": "GI50", "setting": "[17]; read-out: Median Growth Inhibitory Concentration (GI50), SK-MEL-5, Melanoma", "result": 1.5, "unit": "µM"},
      {"measurement": "CC50", "setting": "[17]; read-out: Median Lethal Concentration (LC50), Melanoma, SK-MEL-5, SRB assay", "result": 6.6, "unit": "µM"},
      {"measurement": "GI50", "setting": "[18]; read-out: Median Growth Inhibitory Concentration (GI50), UACC-62, Melanoma", "result": 1.7, "unit": "µM"},
      {"measurement": "CC50", "setting": "[18]; read-out: Median Lethal Concentration (LC50), Melanoma, UACC-62, SRB assay", "result": 14.4, "unit": "µM"},
      {"measurement": "GI50", "setting": "[19]; read-out: Median Growth Inhibitory Concentration (GI50), OVCAR-3, Ovarian Cancer", "result": 0.9, "unit": "µM"},
      {"measurement": "CC50", "setting": "[19]; read-out: Median Lethal Concentration (LC50), Ovarian Cancer, OVCAR-3, SRB assay", "result": 23.5, "unit": "µM"},
      {"measurement": "GI50", "setting": "[20]; read-out: Median Growth Inhibitory Concentration (GI50), OVCAR-8, Ovarian Cancer", "result": 0.8, "unit": "µM"},
      {"measurement": "CC50", "setting": "[20]; read-out: Median Lethal Concentration (LC50), Ovarian Cancer, OVCAR-8, SRB assay", "result": 23, "unit": "µM"},
      {"measurement": "GI50", "setting": "[21]; read-out: Median Growth Inhibitory Concentration (GI50), RXF 393, Renal Cancer", "result": 0.6, "unit": "µM"},
      {"measurement": "CC50", "setting": "[21]; read-out: Median Lethal Concentration (LC50), Renal Cancer, RXF 393, SRB assay", "result": 4.6, "unit": "µM"},
      {"measurement": "GI50", "setting": "[22]; read-out: Median Growth Inhibitory Concentration (GI50), TK-10, Renal Cancer", "result": 2.2, "unit": "µM"},
      {"measurement": "CC50", "setting": "[22]; read-out: Median Lethal Concentration (LC50), Renal Cancer, TK-10, SRB assay", "result": 24.6, "unit": "µM"},
      {"measurement": "GI50", "setting": "[23]; read-out: Median Growth Inhibitory Concentration (GI50), UO-31, Renal Cancer", "result": 1.2, "unit": "µM"},
      {"measurement": "CC50", "setting": "[23]; read-out: Median Lethal Concentration (LC50), Renal Cancer, UO-31, SRB assay", "result": 68.1, "unit": "µM"},
      {"measurement": "GI50", "setting": "[24]; read-out: Median Growth Inhibitory Concentration (GI50), MCF-7, Breast Cancer", "result": 0.3, "unit": "µM"},
      {"measurement": "CC50", "setting": "[24]; read-out: Median Lethal Concentration (LC50), Breast Cancer, MCF-7, SRB assay", "result": 44.7, "unit": "µM"},
      {"measurement": "GI50", "setting": "[25]; read-out: Median Growth Inhibitory Concentration (GI50), MDA-MB-231, Breast Cancer", "result": 1.9, "unit": "µM"},
      {"measurement": "CC50", "setting": "[25]; read-out: Median Lethal Concentration (LC50), Breast Cancer, MDA-MB-231, SRB assay", "result": 17.2, "unit": "µM"},
      {"measurement": "GI50", "setting": "[26]; [32]", "result": 5.1, "unit": "µM"},
      {"measurement": "CC50", "setting": "[26]; [33]", "result": 72.3, "unit": "µM"},
      {"measurement": "GI50", "setting": "[27]; [32]", "result": 1, "unit": "µM"},
      {"measurement": "CC50", "setting": "[27]; [33]", "result": 20, "unit": "µM"}
    ]}
  ]
}
